This passage reports Ki results from ChEMBL document CHEMBL4402598, “Design and Synthesis of Bitopic 2-Phenylcyclopropylmethylamine (PCPMA) Derivatives as Selective Dopamine D3 Receptor Ligands” (J Med Chem, 2020).

The structures appear in SMILES notation.

Assay [1] concerns the target D(1A) dopamine receptor (Homo sapiens, UniProt P21728). The experiment in a line: Displacement of [3H]-SCH23390 from recombinant human D1 receptor transiently expressed in HEKT cell membranes measured after 90 mins by microbeta scintillation counting method. For orientation: In a radioligand displacement assay an active substance lowers the binding of a labelled ligand.

Assay [2] concerns the target D(2) dopamine receptor (Homo sapiens, UniProt P14416). The experiment in a line: Displacement of [3H]-N-methylspiperone from recombinant human D2 receptor stably expressed in fibroblast cell membranes measured after 90 mins by microbeta scintillation counting method.
Assay [3] addresses D(3) dopamine receptor (Homo sapiens, UniProt P35462). The experiment in a line: Displacement of [3H]-N-methylspiperone from recombinant human D3 receptor (unknown origin) measured after 90 mins by microbeta scintillation counting method.
Assay [4] has as its target T1, D(4) dopamine receptor (Homo sapiens, UniProt P21917).
T1 sequence (P21917 whole entry): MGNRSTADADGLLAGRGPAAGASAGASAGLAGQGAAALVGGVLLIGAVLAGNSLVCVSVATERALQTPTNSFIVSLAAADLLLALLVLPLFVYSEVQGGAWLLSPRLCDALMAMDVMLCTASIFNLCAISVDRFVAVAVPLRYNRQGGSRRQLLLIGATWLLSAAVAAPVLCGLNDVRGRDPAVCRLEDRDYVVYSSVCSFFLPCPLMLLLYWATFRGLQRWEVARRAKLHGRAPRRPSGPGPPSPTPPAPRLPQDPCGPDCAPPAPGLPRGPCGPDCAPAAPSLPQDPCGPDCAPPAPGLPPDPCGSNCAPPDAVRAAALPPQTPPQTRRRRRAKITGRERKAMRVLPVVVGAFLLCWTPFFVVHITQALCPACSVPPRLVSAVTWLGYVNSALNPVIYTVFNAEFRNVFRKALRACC
The experiment in a line: Displacement of [3H]-N-methylspiperone from recombinant human D4 receptor stably expressed in HEK cell membranes measured after 90 mins by microbeta scintillation counting method.

Assay [5] deals with D(1B) dopamine receptor (Homo sapiens, UniProt P21918). The experiment in a line: Displacement of [3H]-SCH23390 from recombinant human D5 receptor transiently expressed in HEKT cell membranes measured after 90 mins by microbeta scintillation counting method.
Assay [6] deals with T2, 5-hydroxytryptamine receptor 2C (Homo sapiens, UniProt P28335).
T2 sequence (P28335 whole entry): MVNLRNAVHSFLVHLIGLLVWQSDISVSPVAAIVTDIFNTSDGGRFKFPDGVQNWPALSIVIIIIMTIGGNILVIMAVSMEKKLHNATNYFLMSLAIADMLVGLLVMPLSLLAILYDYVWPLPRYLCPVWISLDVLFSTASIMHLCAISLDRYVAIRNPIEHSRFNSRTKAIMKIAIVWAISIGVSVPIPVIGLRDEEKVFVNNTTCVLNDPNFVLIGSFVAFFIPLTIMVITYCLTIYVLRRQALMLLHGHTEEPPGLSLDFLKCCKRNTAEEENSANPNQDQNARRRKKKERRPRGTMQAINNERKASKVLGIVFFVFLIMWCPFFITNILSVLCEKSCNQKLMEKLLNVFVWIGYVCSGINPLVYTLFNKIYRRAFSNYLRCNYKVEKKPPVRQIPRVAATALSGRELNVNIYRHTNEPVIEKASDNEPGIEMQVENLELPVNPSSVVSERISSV
The experiment in a line: Displacement of [3H]-Mesulergine from recombinant human 5HT2C receptor expressed in HEKT cell membranes measured after 90 mins by microbeta scintillation counting method.

D(1B) dopamine receptor, sequence (P21918 whole entry): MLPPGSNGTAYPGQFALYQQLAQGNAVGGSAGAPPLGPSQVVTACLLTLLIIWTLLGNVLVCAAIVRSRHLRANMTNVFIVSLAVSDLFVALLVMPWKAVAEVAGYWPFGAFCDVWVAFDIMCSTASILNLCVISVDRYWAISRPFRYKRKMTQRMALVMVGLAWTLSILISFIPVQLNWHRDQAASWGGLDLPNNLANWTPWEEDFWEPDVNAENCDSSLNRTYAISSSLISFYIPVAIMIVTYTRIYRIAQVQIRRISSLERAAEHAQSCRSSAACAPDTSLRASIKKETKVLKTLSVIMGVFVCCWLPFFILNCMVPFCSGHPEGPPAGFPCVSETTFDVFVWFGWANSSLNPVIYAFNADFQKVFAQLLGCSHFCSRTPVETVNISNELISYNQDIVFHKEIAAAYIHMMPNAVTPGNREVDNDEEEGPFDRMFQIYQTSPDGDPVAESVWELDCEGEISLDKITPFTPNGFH
D(1A) dopamine receptor, sequence (P21728 whole entry): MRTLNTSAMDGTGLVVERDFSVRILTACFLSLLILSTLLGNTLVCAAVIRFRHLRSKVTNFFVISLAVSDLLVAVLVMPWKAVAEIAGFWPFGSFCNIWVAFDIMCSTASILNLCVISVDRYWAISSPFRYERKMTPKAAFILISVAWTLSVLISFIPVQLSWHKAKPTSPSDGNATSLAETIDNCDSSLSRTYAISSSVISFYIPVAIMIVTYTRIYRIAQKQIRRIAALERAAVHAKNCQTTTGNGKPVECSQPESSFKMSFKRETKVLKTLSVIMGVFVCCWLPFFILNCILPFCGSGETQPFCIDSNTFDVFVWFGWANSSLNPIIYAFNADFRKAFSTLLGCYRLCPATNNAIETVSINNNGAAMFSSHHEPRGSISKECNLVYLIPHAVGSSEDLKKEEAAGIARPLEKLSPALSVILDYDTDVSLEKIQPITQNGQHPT
D(2) dopamine receptor, sequence (P14416 whole entry): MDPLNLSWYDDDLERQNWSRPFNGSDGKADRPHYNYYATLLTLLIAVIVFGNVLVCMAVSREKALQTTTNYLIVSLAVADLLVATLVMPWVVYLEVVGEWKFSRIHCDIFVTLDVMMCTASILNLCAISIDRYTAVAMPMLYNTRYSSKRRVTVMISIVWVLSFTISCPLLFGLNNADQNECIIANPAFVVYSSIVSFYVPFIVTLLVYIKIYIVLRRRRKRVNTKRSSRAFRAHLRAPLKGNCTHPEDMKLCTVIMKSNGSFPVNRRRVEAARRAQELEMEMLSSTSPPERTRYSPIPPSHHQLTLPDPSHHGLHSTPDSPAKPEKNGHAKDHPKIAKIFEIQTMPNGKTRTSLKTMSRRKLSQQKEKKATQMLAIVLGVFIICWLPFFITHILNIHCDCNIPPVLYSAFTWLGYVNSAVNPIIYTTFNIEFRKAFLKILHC
D(3) dopamine receptor, sequence (P35462 whole entry): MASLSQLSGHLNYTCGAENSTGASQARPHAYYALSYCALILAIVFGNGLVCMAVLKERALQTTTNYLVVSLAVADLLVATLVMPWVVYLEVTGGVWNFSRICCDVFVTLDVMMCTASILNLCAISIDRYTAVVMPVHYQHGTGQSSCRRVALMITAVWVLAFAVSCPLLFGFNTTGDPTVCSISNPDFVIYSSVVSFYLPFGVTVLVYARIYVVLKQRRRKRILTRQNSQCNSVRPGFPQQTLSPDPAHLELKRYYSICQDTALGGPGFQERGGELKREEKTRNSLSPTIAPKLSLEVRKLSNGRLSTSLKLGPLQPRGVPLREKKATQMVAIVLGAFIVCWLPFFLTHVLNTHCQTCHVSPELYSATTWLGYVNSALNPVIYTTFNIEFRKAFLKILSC

`CCOc1ccc(F)cc1C1CC1CN(CC)CCCSc1nnc(-c2ccccc2)n1C` (stereo unspecified): the Ki in assay [1] was 1150 nM; in assay [2], 380 nM; in assay [3], 55 nM; in assay [4] it was 101 nM; in assay [5] it was 1580 nM.

With `CCCN(CCCCNC(=O)c1ccc2ccccc2c1)CC1CC1c1cc(F)ccc1OC` (stereo unspecified), the Ki in assay [1] was determined as 967 nM; in assay [2], 1080 nM; in assay [3] it was 14.5 nM; in assay [4] it was 844 nM; in assay [5] it was 2200 nM; in assay [6], 63.1 nM.

Take `CCN(CCCSc1nnc(-c2ccccc2)n1C)CC1CC1c1cc(F)ccc1OC` (stereo unspecified): the Ki in assay [1] was 1720 nM; in assay [2], 275 nM; in assay [3], 44 nM; in assay [4] it was 30 nM; in assay [5], 1850 nM.

In the case of `COc1ccc(F)cc1C1CC1CN(C)CCCSc1nnc(-c2ccccc2)n1C` (stereo unspecified), the inhibitory constant (Ki) came to 794 nM in assay [1]; 324 nM in assay [2]; 84.5 nM in assay [3]; 85.1 nM in assay [4]; 1000 nM in assay [5].

With `CCCN(CCCSc1nnc(-c2ccccc2)n1C)CC1CC1c1cc(Cl)ccc1OC` (stereo unspecified), the Ki was 1920 nM in assay [1]; 233 nM in assay [2]; 36.7 nM in assay [3]; 130 nM in assay [4]; greater than 5000 nM in assay [5]; 535 nM in assay [6].

For `CCCN(CCCCNC(=O)c1ccc2ccccc2c1)CC1CC1c1cccc(Cl)c1Cl` (racemic), the inhibition constant (Ki) worked out at 891 nM in assay [1]; 2100 nM in assay [2]; 1340 nM in assay [4]; 4020 nM in assay [5]; 123 nM in assay [6].

Regarding `CCOc1ccc(F)cc1C1CC1CN(C)CCCSc1nnc(-c2ccccc2)n1C` (stereo unspecified), the Ki in assay [1] is 1120 nM; in assay [2], greater than 5000 nM; in assay [3], 550 nM; in assay [4], 989 nM; in assay [5] it was greater than 5000 nM.

With `CCN(CCCSc1nnc(-c2ccccc2)n1C)CC1CC1c1cc(F)ccc1OCCF` (stereo unspecified), the Ki in assay [1] is 584 nM; in assay [2], 845 nM; in assay [3] it was 113 nM; in assay [4], 179 nM; in assay [5], 2000 nM.

Take `CCOc1ccc(F)cc1C1CC1CNCCCSc1nnc(-c2ccccc2)n1C` (stereo unspecified): the Ki in assay [1] is 295 nM; in assay [2], 661 nM; in assay [3], 219 nM; in assay [4], 501 nM; in assay [5], 589 nM.

With `CCCN(CCCCNC(=O)c1ccc(-c2ccccn2)cc1)CC1CC1c1cccc(Cl)c1Cl` (racemic), the Ki in assay [1] is 1650 nM; in assay [4] it was 2010 nM; in assay [5] it was greater than 5000 nM; in assay [6] it was 97.7 nM.

For `CN(CCCSc1nnc(-c2ccccc2)n1C)CC1CC1c1cc(F)ccc1OCCF` (stereo unspecified), the Ki in assay [1] stood at 1470 nM; in assay [2], 2440 nM; in assay [3], 562 nM; in assay [4] it was 977 nM; in assay [5], 2150 nM.

On to `COc1ccc(F)cc1C1CC1CNCCCSc1nnc(-c2ccccc2)n1C` (stereo unspecified), for which the Ki in assay [1] worked out at 631 nM; in assay [2], 253 nM; in assay [3], 89.8 nM; in assay [4] it was 133 nM; in assay [5] it was 926 nM.

For the compound `Cn1c(SCCCNCC2CC2c2cc(F)ccc2OCCF)nnc1-c1ccccc1` (stereo unspecified), the Ki was 369 nM in assay [1]; 1500 nM in assay [2]; 525 nM in assay [3]; 962 nM in assay [4]; 1080 nM in assay [5].

Regarding `CCCN(CCCCNC(=O)c1ccc(-c2ccccn2)cc1)CC1CC1c1cc(F)ccc1OC` (racemic), the inhibition constant (Ki) in assay [1] is 1760 nM; in assay [2], 3140 nM; in assay [4] it was 1140 nM; in assay [5], greater than 5000 nM; in assay [6], 53 nM.

As for `CCCN(CCCCNC(=O)c1cc2ccccc2[nH]1)CC1CC1c1cccc(Cl)c1Cl` (racemic), the inhibition constant Ki in assay [1] amounted to 891 nM; in assay [2], 1500 nM; in assay [4], 1130 nM; in assay [5], 3500 nM; in assay [6], 105 nM.

The Ki is the dissociation constant of the complex between target and ligand, obtained from inhibition or displacement.
